What all share (type): biochemical
Experiment [1] addresses T1, human IP6K1 (Homo sapiens, UniProt Q92551).
T1 construct: human IP6K1 (1-441) gene; GST; made in house; host or cells: Sf-9 insect cells
Kind of experiment: IP6K enzyme inhibitory assay (ADP-Glo Kinase Assay), human IP6K1. The note with it: compound concentration 0.1 μM; read-out: ADP-Glo method inhibitory rate (%) human IP6K1. Summed up: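 Inhibition of human IP6K1 was determined with Promega's ADP-Glo Kinase Assay in 384 well plates. Test compound diluted in assay buffer (20 mM HEPES (pH 7.5), 6 mM MgCl2, 0.01% Tween-20, 1 mM DTT) was added at 2 μL, then 2 μL of enzyme started the reaction for 60 min at room temperature. Next came 3 μL ADP-Glo solution for 30 min and 6 μL Kinase-Detection solution for 60 min. Luminescence was read on an Envision plate reader.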

For experiment [2], the target named is T2, human IP6K3 (Homo sapiens, UniProt Q96PC2).
T2 construct: human IP6K3 (1-410) gene; made in house; host or cells: BL21 (DE3) Escherichia coli
T2 sequence (Q96PC2 1-410): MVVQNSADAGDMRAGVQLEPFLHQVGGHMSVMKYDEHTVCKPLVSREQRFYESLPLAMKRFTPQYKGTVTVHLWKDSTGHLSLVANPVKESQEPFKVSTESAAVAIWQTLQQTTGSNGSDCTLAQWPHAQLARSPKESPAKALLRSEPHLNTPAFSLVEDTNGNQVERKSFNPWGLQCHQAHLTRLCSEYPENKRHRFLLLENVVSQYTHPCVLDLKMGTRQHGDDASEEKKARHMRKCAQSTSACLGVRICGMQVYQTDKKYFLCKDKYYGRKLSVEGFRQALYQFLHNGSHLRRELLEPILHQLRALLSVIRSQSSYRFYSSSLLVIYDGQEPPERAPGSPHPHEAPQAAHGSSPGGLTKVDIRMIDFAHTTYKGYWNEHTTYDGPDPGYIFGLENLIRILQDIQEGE
Put plainly: IP6K enzyme inhibitory assay (ADP-Glo Kinase Assay), human IP6K3. The note with it: compound concentration 0.1 μM; read-out: ADP-Glo method inhibitory rate (%) human IP6K3. In a few lines: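 Recombinant human IP6K (IP6K3 residues 1-410, E. coli, Ni-NTA purified) incubated with compound in 20 mM HEPES pH 7.5, 6 mM MgCl2, 0.01% Tween-20, 1 mM DTT for 60 min at room temperature. ADP formed read as luminescence by ADP-Glo.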
(In general: ADP-Glo first removes unused ATP, then detects ADP through luciferase.)

Experiment [3] addresses T3, human IP6K2 (Homo sapiens, UniProt Q9UHH9).
T3 construct: human IP6K2 (1-426) gene; GST; made in house; host or cells: Sf-9 insect cells
T3 sequence (Q9UHH9 1-426): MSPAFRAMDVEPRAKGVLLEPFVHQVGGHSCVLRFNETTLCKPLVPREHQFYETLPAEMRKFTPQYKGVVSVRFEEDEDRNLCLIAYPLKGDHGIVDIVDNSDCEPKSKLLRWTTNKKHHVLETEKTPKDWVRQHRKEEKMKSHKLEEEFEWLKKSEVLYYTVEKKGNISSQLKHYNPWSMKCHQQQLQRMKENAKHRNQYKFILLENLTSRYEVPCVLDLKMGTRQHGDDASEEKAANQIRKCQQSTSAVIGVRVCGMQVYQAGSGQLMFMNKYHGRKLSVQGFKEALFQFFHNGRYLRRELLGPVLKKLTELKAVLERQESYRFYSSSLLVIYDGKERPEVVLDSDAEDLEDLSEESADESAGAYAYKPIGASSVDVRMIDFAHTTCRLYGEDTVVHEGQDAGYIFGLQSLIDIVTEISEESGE
Put plainly: IP6K enzyme inhibitory assay (ADP-Glo Kinase Assay), human IP6K2. The note with it: compound concentration 0.1 μM; read-out: ADP-Glo method inhibitory rate (%) human IP6K2. In a few lines:
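The inhibitory activity against human IP6K2 was measured with Promega's ADP-Glo Kinase Assay in 384 well plates. Test compound, diluted in assay buffer (20 mM HEPES (pH 7.5), 6 mM MgCl2, 0.01% Tween-20, 1 mM DTT), was added at 2 μL. Adding 2 μL of diluted enzyme started the reaction, which ran for 60 min at room temperature. Next, 3 μL ADP-Glo solution (30 min) and 6 μL Kinase-Detection solution (60 min) were added, and luminescence was read on an Envision plate reader.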

T1 sequence (Q92551 whole entry): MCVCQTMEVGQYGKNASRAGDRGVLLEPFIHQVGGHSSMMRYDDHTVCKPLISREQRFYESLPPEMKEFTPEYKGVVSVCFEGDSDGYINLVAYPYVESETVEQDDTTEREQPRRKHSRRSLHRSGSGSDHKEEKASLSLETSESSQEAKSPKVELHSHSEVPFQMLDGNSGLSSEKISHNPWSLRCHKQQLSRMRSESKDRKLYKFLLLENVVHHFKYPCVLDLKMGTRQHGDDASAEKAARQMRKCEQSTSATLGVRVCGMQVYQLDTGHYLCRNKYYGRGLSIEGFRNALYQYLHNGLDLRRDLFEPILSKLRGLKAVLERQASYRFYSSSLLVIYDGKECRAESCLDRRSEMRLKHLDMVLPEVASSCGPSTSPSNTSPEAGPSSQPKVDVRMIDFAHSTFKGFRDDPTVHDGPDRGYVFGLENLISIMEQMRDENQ

`Cc1cccc(O[C@H]2CC[C@@]3(CC2)C(=O)Nc2ccc(C(=O)O)cc23)c1F` [Example 53, (1r,4r)-4-(2-fluoro-3-methylphenoxy)-2′-oxo-1′,2′-dihydrospiro[cyclohexane-1,3′-indole]-5′-carboxylic acid]: the inhibition at 0.1 µM in experiment [1] is 96%; in experiment [2], 97%; in experiment [3], 96%.
For `Cc1ccc(C#N)c(O[C@H]2CC[C@]3(CC2)C(=O)Nc2ccc(C(=O)O)cc23)n1` [Example 104, (1s,4s)-4-((3-cyano-6-methylpyridin-2-yl)oxy)-2′-oxo-1′,2′-dihydrospiro[cyclohexane-1,3′-indole]-5′-carboxylic acid], the inhibition at 0.1 µM was 95% in experiment [1], 98% in experiment [2] and 99% in experiment [3].
As for `O=C(O)c1ccc2c(n1)[C@]1(CC[C@H](Oc3ccccc3Cl)CC1)C(=O)N2` [Example 85, (1s,4s)-4-(2-chlorophenoxy)-2′-oxo-1′,2′-dihydrospiro[cyclohexane-1,3′-pyrrolo[3,2-b]pyridine]-5′-carboxylic acid], the inhibition at 0.1 µM was 81% in experiment [1], 95% in experiment [2] and 71% in experiment [3].
Turning to `COc1ccc(O[C@H]2CC[C@@]3(CC2)C(=O)Nc2ccc(C(=O)O)cc23)cc1` [Example 49, (1r,4r)-4-(4-methoxyphenxoy)-2′-oxo-1′,2′-dihydrospiro[cyclohexane-1,3′-indole]-5′-carboxylic acid], the inhibition at 0.1 µM turned out to be 100% in experiment [1], 100% in experiment [2] and 99% in experiment [3].
